# Where “and” joins values, the source holds several entries; their conditions need not be identical. Identical values can stand only once. Inconclusive results and toxic doses are left out.
# Tested on: P388 leukemia ip, CD2F1 mice, survival T/C
# Assay: NCI In Vivo Anticancer Drug Screen. Data for tumor model P388 Leukemia (intraperitoneal) in CD2F1 (CDF1) mice
# Details: endpoint: median survival time, higher = longer survival
# Outline: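 Mice carrying the transplanted tumor received test compound or vehicle. Survival was recorded in each group, and the value is the treated-group measurement divided by that of the vehicle-treated control group.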
# [1] = dose: 50.0 mg/kg/injection, schedule: Q01DX005 (ip), vehicle: Klucel (hydroxypropylcellulose) (HPC)
# [2] = dose: 100.0 mg/kg/injection, schedule: Q01DX005 (ip), vehicle: Klucel (hydroxypropylcellulose) (HPC)
# [3] = dose: 50.0 mg/kg/injection, schedule: Q01DX009 (ip), vehicle: saline
# [4] = dose: 100.0 mg/kg/injection, schedule: Q01DX009 (ip), vehicle: saline
# [5] = dose: 100.0 mg/kg/injection, schedule: Q01DX001 (ip), vehicle: saline with Tween-80
# [6] = dose: 200.0 mg/kg/injection, schedule: Q01DX001 (ip), vehicle: saline with Tween-80
# [7] = dose: 25.0 mg/kg/injection, schedule: Q01DX001 (ip), vehicle: saline
# [8] = dose: 100.0 mg/kg/injection, schedule: Q01DX005 (ip), vehicle: saline
# [9] = dose: 200.0 mg/kg/injection, schedule: Q01DX005 (ip), vehicle: saline
structure (smiles),measurement,setting,value
O=S(Cl)C(Cl)=C(Cl)Cl (stereo unspecified),T/C,[1],106 % of control
same,T/C,[2],104 % of control
same,T/C,"dose: 200.0 mg/kg/injection, schedule: Q01DX005 (ip), vehicle: Klucel (hydroxypropylcellulose) (HPC)",103 % of control
CC(C)N[C@@H]1CCC[C@@H]2c3ccccc3[C@@]21O,T/C,"dose: 60.0 mg/kg/injection, schedule: Q01DX005 (ip), vehicle: saline",96 % of control
same,T/C,"dose: 120.0 mg/kg/injection, schedule: Q01DX005 (ip), vehicle: saline",95 % of control
CCOC(=O)CCC#N,T/C,[3],99 % of control and 105 % of control
same,T/C,[4],107 % of control and 108 % of control
same,T/C,"dose: 200.0 mg/kg/injection, schedule: Q01DX009 (ip), vehicle: saline",105 % of control and 106 % of control
same,T/C,"dose: 400.0 mg/kg/injection, schedule: Q01DX009 (ip), vehicle: saline",100 % of control
CSC(SC)=C(C#N)c1nc(SC)c(C#N)c(SC)n1,T/C,"dose: 50.0 mg/kg/injection, schedule: Q04DX003 (ip), vehicle: saline",102 % of control
same,T/C,"dose: 100.0 mg/kg/injection, schedule: Q04DX003 (ip), vehicle: saline",112 % of control
CN(C)C(=O)NC1(N(C)C)CC1,T/C,"dose: 25.0 mg/kg/injection, schedule: Q01DX009 (ip), vehicle: saline",104 % of control
same,T/C,[3],100 % of control
same,T/C,[4],97 % of control
CCC(c1ccc(OC)cc1)C(NCC(=O)N/N=C1\C[C@@H]2[C@H](CC[C@]3(C)[C@@H](O)CC[C@@H]23)c2ccc(O)cc21)c1ccc(OC)cc1 (stereo partly specified),T/C,[5],100 % of control
same,T/C,[6],99 % of control
same,T/C,"dose: 400.0 mg/kg/injection, schedule: Q01DX001 (ip), vehicle: saline with Tween-80",99 % of control
CCOC(C)(c1ccc(Cl)cc1)C1CCNCC1 (stereo unspecified),T/C,"dose: 50.0 mg/kg/injection, schedule: Q01DX009 (ip), vehicle: saline with Tween-80",101 % of control
same,T/C,"dose: 100.0 mg/kg/injection, schedule: Q01DX009 (ip), vehicle: saline with Tween-80",119 % of control
CS(=O)(=O)Nc1ccc(Nc2c3ccccc3nc3cc(N)ccc23)cc1,T/C,"dose: 1.32 mg/kg/injection, schedule: Q04DX003 (ip), vehicle: saline",154 % of control
same,T/C,"dose: 1.78 mg/kg/injection, schedule: Q04DX003 (ip), vehicle: saline",167 % of control
same,T/C,"dose: 2.0 mg/kg/injection, schedule: Q04DX003 (ip), vehicle: saline",172 % of control
same,T/C,"dose: 2.66 mg/kg/injection, schedule: Q04DX003 (ip), vehicle: saline",158 % of control
same,T/C,"dose: 2.9 mg/kg/injection, schedule: Q04DX003 (ip), vehicle: saline",187 % of control
same,T/C,"dose: 3.0 mg/kg/injection, schedule: Q04DX003 (ip), vehicle: saline",181 % of control
same,T/C,"dose: 4.0 mg/kg/injection, schedule: Q04DX003 (ip), vehicle: saline",155 % of control
same,T/C,"dose: 4.4 mg/kg/injection, schedule: Q04DX003 (ip), vehicle: saline",204 % of control
same,T/C,"dose: 4.5 mg/kg/injection, schedule: Q04DX003 (ip), vehicle: saline",163 % of control
same,T/C,"dose: 6.0 mg/kg/injection, schedule: Q04DX003 (ip), vehicle: saline",192 % of control
same,T/C,"dose: 6.6 mg/kg/injection, schedule: Q04DX003 (ip), vehicle: saline",212 % of control
same,T/C,"dose: 10.0 mg/kg/injection, schedule: Q04DX003 (ip), vehicle: saline",112 % of control
C1CC[N+](=c2nc(N3CCOCC3)ss2)C1,T/C,"dose: 50.0 mg/kg/injection, schedule: Q04DX002 (ip), vehicle: saline with Tween-80",100 % of control
same,T/C,"dose: 100.0 mg/kg/injection, schedule: Q04DX002 (ip), vehicle: saline with Tween-80",99 % of control
same,T/C,"dose: 200.0 mg/kg/injection, schedule: Q04DX002 (ip), vehicle: saline with Tween-80",99 % of control
CCCCOCCOCCOCCOCCCN1C(=O)C2C3C=CC(C3)C2C1=O (stereo unspecified),T/C,[1],97 % of control
same,T/C,[2],100 % of control
CCC(=O)C1(C)OC1C(C)CC(C)C1OC(=O)CC2(O)CC=C(C)C(O2)/C(C)=C/CCCC(OC2CC(OC(N)=O)C(O)C(C)O2)/C=C/C(C)C(O)C1C (stereo unspecified),T/C,"dose: 6.2 mg/kg/injection, schedule: Q01DX005 (ip), vehicle: Klucel (hydroxypropylcellulose) (HPC)",109 % of control
same,T/C,"dose: 12.5 mg/kg/injection, schedule: Q01DX005 (ip), vehicle: Klucel (hydroxypropylcellulose) (HPC)",98 % of control
same,T/C,"dose: 25.0 mg/kg/injection, schedule: Q01DX005 (ip), vehicle: Klucel (hydroxypropylcellulose) (HPC)",103 % of control
same,T/C,[1],108 % of control
ClC(Cl)CN(Cc1ccccc1)c1ncc[nH]1,T/C,"dose: 6.25 mg/kg/injection, schedule: Q01DX001 (ip), vehicle: saline",105 % of control
same,T/C,"dose: 12.5 mg/kg/injection, schedule: Q01DX001 (ip), vehicle: saline",104 % of control
same,T/C,[7],105 % of control
CCOP(=S)(OCC)Oc1ccc([N+](=O)[O-])cc1,T/C,"dose: 0.06 mg/kg/injection, schedule: Q01DX009 (ip), vehicle: saline",102 % of control
same,T/C,"dose: 0.12 mg/kg/injection, schedule: Q01DX009 (ip), vehicle: saline",106 % of control
same,T/C,"dose: 0.25 mg/kg/injection, schedule: Q01DX009 (ip), vehicle: saline",107 % of control
same,T/C,"dose: 0.5 mg/kg/injection, schedule: Q01DX009 (ip), vehicle: saline",100 % of control
O=NN(C(=O)NC1CCOCC1)C1CCOCC1,T/C,"dose: 25.0 mg/kg/injection, schedule: Q01DX001 (ip), vehicle: distilled water + Tween-80",101 % of control
same,T/C,"dose: 50.0 mg/kg/injection, schedule: Q01DX001 (ip), vehicle: distilled water + Tween-80",101 % of control
same,T/C,"dose: 100.0 mg/kg/injection, schedule: Q01DX001 (ip), vehicle: distilled water + Tween-80",102 % of control
same,T/C,"dose: 200.0 mg/kg/injection, schedule: Q01DX001 (ip), vehicle: distilled water + Tween-80",105 % of control
same,T/C,"dose: 400.0 mg/kg/injection, schedule: Q01DX001 (ip), vehicle: distilled water + Tween-80",102 % of control
CCCC(=O)N(CCC(N)=O)c1ncc([N+](=O)[O-])s1,T/C,[7],94 % of control
same,T/C,"dose: 50.0 mg/kg/injection, schedule: Q01DX001 (ip), vehicle: saline",100 % of control
same,T/C,"dose: 100.0 mg/kg/injection, schedule: Q01DX001 (ip), vehicle: saline",100 % of control
C1CC[N-]CC1.C1CC[N-]CC1.[Cl][Cd][Cl],T/C,"dose: 0.2 mg/kg/injection, schedule: Q01DX009 (ip), vehicle: water",95 % of control
same,T/C,"dose: 0.39 mg/kg/injection, schedule: Q01DX009 (ip), vehicle: water",96 % of control
same,T/C,"dose: 0.78 mg/kg/injection, schedule: Q01DX009 (ip), vehicle: other",90 % of control
same,T/C,"dose: 0.78 mg/kg/injection, schedule: Q01DX009 (ip), vehicle: water",98 % of control
same,T/C,"dose: 1.56 mg/kg/injection, schedule: Q01DX009 (ip), vehicle: other",90 % of control
same,T/C,"dose: 3.13 mg/kg/injection, schedule: Q01DX009 (ip), vehicle: other",93 % of control
N#CN=C(N)N,T/C,"dose: 18.8 mg/kg/injection, schedule: Q01DX005 (ip), vehicle: saline",115 % of control
same,T/C,"dose: 37.5 mg/kg/injection, schedule: Q01DX005 (ip), vehicle: saline",112 % of control
same,T/C,"dose: 75.0 mg/kg/injection, schedule: Q01DX005 (ip), vehicle: saline",98 % of control
same,T/C,[8],96 % of control
same,T/C,"dose: 150.0 mg/kg/injection, schedule: Q01DX005 (ip), vehicle: saline",105 % of control
same,T/C,[9],102 % of control
same,T/C,"dose: 300.0 mg/kg/injection, schedule: Q01DX005 (ip), vehicle: saline",118 % of control
same,T/C,"dose: 400.0 mg/kg/injection, schedule: Q01DX005 (ip), vehicle: saline",99 % of control
same,T/C,"dose: 600.0 mg/kg/injection, schedule: Q01DX005 (ip), vehicle: saline",112 % of control
same,T/C,"dose: 800.0 mg/kg/injection, schedule: Q01DX005 (ip), vehicle: saline",101 % of control
CN(C)c1ccc(C(=O)C2(Cl)CCCC(C)(C)C2)cc1 (stereo unspecified),T/C,"dose: 100.0 mg/kg/injection, schedule: Q04DX002 (ip), vehicle: Klucel (hydroxypropylcellulose) (HPC)",102 % of control
same,T/C,"dose: 200.0 mg/kg/injection, schedule: Q04DX002 (ip), vehicle: Klucel (hydroxypropylcellulose) (HPC)",99 % of control
same,T/C,"dose: 400.0 mg/kg/injection, schedule: Q04DX002 (ip), vehicle: Klucel (hydroxypropylcellulose) (HPC)",94 % of control
CCOP(=O)(CS(=O)CCC1(C)NC(=O)NC1=O)OCC (stereo unspecified),T/C,"dose: 50.0 mg/kg/injection, schedule: Q01DX005 (ip), vehicle: saline",100 % of control
same,T/C,[8],101 % of control
same,T/C,[9],103 % of control
CC(=O)OCC1=C(COC(C)=O)C(=O)c2cc3ccccc3cc2C1=O,T/C,"dose: 25.0 mg/kg/injection, schedule: Q01DX001 (ip), vehicle: saline with Tween-80",92 % of control
same,T/C,"dose: 50.0 mg/kg/injection, schedule: Q01DX001 (ip), vehicle: saline with Tween-80",92 % of control
same,T/C,[5],94 % of control
same,T/C,[6],101 % of control
